Measurements: PubChem BioAssay (NCI)
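Tested at 5 concentrations; 48 h exposure; 96-well plates; endpoints linearly interpolated, else capped at highest concentration. At the GI50, growth is halved. TGI denotes the concentration required for complete inhibition of growth.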

Key:
Test in all cases: NCI anticancer screen, dose series, 48 h
[1] = tested on: EKVX NSCLC
[2] = tested on: SW-620 colon
[3] = tested on: SK-MEL-2 melanoma
[4] = tested on: UACC-257 melanoma
[5] = tested on: UO-31 renal
[6] = tested on: RXF 393 renal
[7] = tested on: SK-MEL-5 melanoma
[8] = tested on: SF-295 CNS
[9] = tested on: NCI-H23 lung
[10] = tested on: NCI/ADR-RES ovarian
[11] = tested on: NCI-H226 lung
[12] = tested on: SNB-75 CNS
[13] = tested on: HCC-2998 colon
[14] = tested on: HOP-92 NSCLC
[15] = tested on: A498 renal
[16] = tested on: M14 melanoma
[17] = tested on: HCT-15 colon
[18] = tested on: CAKI-1 renal
[19] = tested on: RPMI-8226 leukemia
[20] = tested on: SF-539 CNS
[21] = tested on: SK-OV-3 ovarian
[22] = tested on: HCT-116 colon
[23] = tested on: SK-MEL-28 melanoma
[24] = tested on: MDA-MB-231 breast
[25] = tested on: DU-145 prostate
[26] = tested on: CCRF-CEM leukemia
[27] = tested on: BT-549 breast
[28] = tested on: OVCAR-3 ovarian
[29] = tested on: ACHN renal
[30] = tested on: NCI-H460 lung
[31] = tested on: SN12C renal
[32] = tested on: OVCAR-5 ovarian
[33] = tested on: HL-60(TB) leukemia
[34] = tested on: MDA-MB-435
[35] = tested on: UACC-62 melanoma
[36] = tested on: KM12 colon
[37] = tested on: TK-10 renal
[38] = tested on: SNB-19 CNS
[39] = tested on: HT29 colon
[40] = tested on: U251 CNS
[41] = tested on: COLO 205 colon
[42] = tested on: IGROV1 ovarian
[43] = tested on: T-47D breast
[44] = tested on: SR leukemia
[45] = tested on: SF-268 CNS
[46] = tested on: MOLT-4 leukemia
[47] = tested on: MCF7 breast
[48] = tested on: MALME-3M melanoma
[49] = tested on: PC-3 prostate
[50] = tested on: OVCAR-4 ovarian
[51] = tested on: K-562 leukemia
[52] = tested on: HS 578T breast
[53] = tested on: 786-0 renal
[54] = tested on: A549 NSCLC
[55] = tested on: LOX IMVI melanoma
[56] = tested on: OVCAR-8 ovarian
[57] = tested on: HOP-62 NSCLC
[58] = tested on: NCI-H522 lung

Cc1[nH]c(C(=O)Nc2ccccc2OCc2cccc(C(=O)NC3CCNC3)c2)c(Cl)c1Cl (stereo not drawn)
GI50 [1]: 1950 nM | TGI [1]: 4.64 µM | GI50 [2]: 1860 nM | TGI [2]: 3.54 µM | GI50 [3]: 19 µM | TGI [3]: 57.1 µM | GI50 [4]: 5.75 µM | TGI [4]: 31.1 µM | GI50 [5]: 15.4 µM | TGI [5]: 51.1 µM | GI50 [6]: 2070 nM | TGI [6]: 4.9 µM | GI50 [7]: 5250 nM | TGI [7]: 19.2 µM | GI50 [8]: 4.52 µM | TGI [8]: 38.9 µM | GI50 [9]: 1910 nM | TGI [9]: 3.89 µM | GI50 [10]: > 100000 nM | TGI [10]: > 100 µM | GI50 [11]: 15.3 µM | TGI [11]: 47.3 µM | GI50 [12]: 1560 nM | TGI [12]: 4.95 µM | GI50 [13]: 1910 nM | TGI [13]: 3.55 µM | GI50 [14]: 3570 nM | TGI [14]: 20.5 µM | GI50 [15]: 12.6 µM | TGI [15]: 26.7 µM | GI50 [16]: 1750 nM | TGI [16]: 3.4 µM | GI50 [17]: 4870 nM | TGI [17]: 22.7 µM | GI50 [18]: 2050 nM | TGI [18]: 5.1 µM | GI50 [19]: 2310 nM | TGI [19]: 5.07 µM | GI50 [20]: 1740 nM | TGI [20]: 3.26 µM | GI50 [21]: 23.6 µM | TGI [21]: 47.3 µM | GI50 [22]: 1850 nM | TGI [22]: 3670 nM | GI50 [23]: 1860 nM | TGI [23]: 3.43 µM | GI50 [24]: 1880 nM | TGI [24]: 3.59 µM | GI50 [25]: 1880 nM | TGI [25]: 3.37 µM | GI50 [26]: 1910 nM | TGI [26]: 4.46 µM | GI50 [27]: 5150 nM | TGI [27]: 25.1 µM | GI50 [28]: 1890 nM | TGI [28]: 3.44 µM | GI50 [29]: 3170 nM | TGI [29]: 11.5 µM | GI50 [30]: 1900 nM | TGI [30]: 3.58 µM | GI50 [31]: 11 µM | TGI [31]: 27.7 µM | GI50 [32]: 1760 nM | TGI [32]: 3.24 µM | GI50 [33]: 2210 nM | TGI [33]: 5.11 µM | GI50 [34]: 1790 nM | TGI [34]: 3.33 µM | GI50 [35]: 1670 nM | TGI [35]: 3320 nM | GI50 [36]: 1940 nM | TGI [36]: 3.69 µM | GI50 [37]: 2.86 µM | TGI [37]: 7.19 µM

NC(=O)n1c(=O)n(-c2cccc(C(F)(F)F)c2)c(=O)c2cc(-c3ccc(F)cc3F)ccc21
GI50 [1]: 2830 nM | TGI [1]: 9.59 µM | GI50 [2]: 2650 nM | TGI [2]: 10.4 µM | GI50 [3]: 0.75 µM | TGI [3]: 2.82 µM | GI50 [38]: 1510 nM | TGI [38]: 12.7 µM | GI50 [4]: 1.06 µM | TGI [4]: 4.54 µM | GI50 [39]: 4.38 µM | TGI [39]: 18.8 µM | GI50 [5]: 2.19 µM | TGI [5]: 8.44 µM | GI50 [40]: 2010 nM | TGI [40]: 11.1 µM | GI50 [41]: 3.35 µM | TGI [41]: 10.6 µM | GI50 [6]: 1230 nM | TGI [6]: 3.13 µM | GI50 [7]: 338 nM | TGI [7]: 1.21 µM | GI50 [8]: 1.68 µM | TGI [8]: 3.51 µM | GI50 [42]: 2120 nM | TGI [42]: 15.1 µM | GI50 [9]: 1230 nM | TGI [9]: 4.63 µM | GI50 [43]: 1610 nM | TGI [43]: 6.28 µM | GI50 [44]: 580 nM | TGI [44]: 4.6 µM | GI50 [45]: 2570 nM | TGI [45]: 13 µM | GI50 [10]: 2060 nM | TGI [10]: 8.87 µM | GI50 [11]: 1.31 µM | TGI [11]: 3.99 µM | GI50 [12]: 1810 nM | TGI [12]: 7.47 µM | GI50 [46]: 2220 nM | TGI [46]: 6.16 µM | GI50 [13]: 2760 nM | TGI [13]: 9.26 µM | GI50 [14]: 149 nM | TGI [14]: 0.568 µM | GI50 [15]: 0.512 µM | TGI [15]: 1.93 µM | GI50 [47]: 1740 nM | TGI [47]: 6.47 µM | GI50 [48]: 1440 nM | TGI [48]: 5.3 µM | GI50 [16]: 1340 nM | TGI [16]: 3.8 µM | GI50 [17]: 790 nM | TGI [17]: 2.68 µM | GI50 [18]: 1900 nM | TGI [18]: 6.38 µM | GI50 [49]: 1070 nM | TGI [49]: 5.73 µM | GI50 [19]: 990 nM | TGI [19]: 5.12 µM | GI50 [20]: 2110 nM | TGI [20]: 8.5 µM | GI50 [50]: 2810 nM | TGI [50]: 16.5 µM | GI50 [21]: 1.6 µM | TGI [21]: 4.42 µM | GI50 [51]: 771 nM | TGI [51]: 80.3 µM | GI50 [22]: 559 nM | TGI [22]: 1980 nM | GI50 [23]: 1390 nM | TGI [23]: 8.55 µM | GI50 [24]: 2120 nM | TGI [24]: 6.86 µM | GI50 [52]: 2120 nM | TGI [52]: 7.06 µM | GI50 [25]: 3530 nM | TGI [25]: 15.5 µM | GI50 [53]: 1940 nM | TGI [53]: 4.54 µM | GI50 [26]: 3070 nM | TGI [26]: 19 µM | GI50 [27]: 315 nM | TGI [27]: 1.12 µM | GI50 [29]: 2420 nM | TGI [29]: 10.1 µM | GI50 [54]: 3.19 µM | TGI [54]: 11.8 µM | GI50 [30]: 1390 nM | TGI [30]: 6.8 µM | GI50 [31]: 1.27 µM | TGI [31]: 7.24 µM | GI50 [55]: 1680 nM | TGI [55]: 3.76 µM | GI50 [32]: 3380 nM | TGI [32]: 14.4 µM | GI50 [33]: 1270 nM | TGI [33]: 7.52 µM | GI50 [34]: 1890 nM | TGI [34]: 7.33 µM | GI50 [35]: 363 nM | TGI [35]: 1690 nM | GI50 [36]: 2550 nM | TGI [36]: 7.15 µM | GI50 [56]: 1840 nM | TGI [56]: 9.65 µM | GI50 [57]: 1960 nM | TGI [57]: 4.79 µM | GI50 [37]: 4.04 µM | TGI [37]: 9.74 µM | GI50 [58]: 493 nM | TGI [58]: 3.74 µM
